# Measurements taken from patent US20120165310A1, “ETHER DERIVATIVES OF BICYCLIC HETEROARYLS” (NOVARTIS AG, priority 2009, published 2012).
# Molecular target: T1, IGF-1R (Homo sapiens, UniProt P08069)
# T1 construct: expressed in transfected cells; host or cells: Hek293 (Hek293-IGF1R)
# Test: Cellular IGF-1R assay: capture ELISA (MSD) of receptor phosphorylation in Hek293 cells
# Assay type: cell-based
# Conditions: Hek293-IGF1R cells, 1 h pre-incubation, 10 min IGF stimulation, pIGF1R capture ELISA
# Outline: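 IC50 from 4-parameter fit of IGF1R phosphorylation, normalised to IGF-stimulated and unstimulated controls, measured by MSD capture ELISA on lysates. Hek293-IGF1R cells in starvation medium got compound 1 h (top 10 μM, 3-fold steps, 0.1% DMSO) before a 10 min pulse of 1.0 ng/μL IGF.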
# T1 sequence (P08069 31-1367): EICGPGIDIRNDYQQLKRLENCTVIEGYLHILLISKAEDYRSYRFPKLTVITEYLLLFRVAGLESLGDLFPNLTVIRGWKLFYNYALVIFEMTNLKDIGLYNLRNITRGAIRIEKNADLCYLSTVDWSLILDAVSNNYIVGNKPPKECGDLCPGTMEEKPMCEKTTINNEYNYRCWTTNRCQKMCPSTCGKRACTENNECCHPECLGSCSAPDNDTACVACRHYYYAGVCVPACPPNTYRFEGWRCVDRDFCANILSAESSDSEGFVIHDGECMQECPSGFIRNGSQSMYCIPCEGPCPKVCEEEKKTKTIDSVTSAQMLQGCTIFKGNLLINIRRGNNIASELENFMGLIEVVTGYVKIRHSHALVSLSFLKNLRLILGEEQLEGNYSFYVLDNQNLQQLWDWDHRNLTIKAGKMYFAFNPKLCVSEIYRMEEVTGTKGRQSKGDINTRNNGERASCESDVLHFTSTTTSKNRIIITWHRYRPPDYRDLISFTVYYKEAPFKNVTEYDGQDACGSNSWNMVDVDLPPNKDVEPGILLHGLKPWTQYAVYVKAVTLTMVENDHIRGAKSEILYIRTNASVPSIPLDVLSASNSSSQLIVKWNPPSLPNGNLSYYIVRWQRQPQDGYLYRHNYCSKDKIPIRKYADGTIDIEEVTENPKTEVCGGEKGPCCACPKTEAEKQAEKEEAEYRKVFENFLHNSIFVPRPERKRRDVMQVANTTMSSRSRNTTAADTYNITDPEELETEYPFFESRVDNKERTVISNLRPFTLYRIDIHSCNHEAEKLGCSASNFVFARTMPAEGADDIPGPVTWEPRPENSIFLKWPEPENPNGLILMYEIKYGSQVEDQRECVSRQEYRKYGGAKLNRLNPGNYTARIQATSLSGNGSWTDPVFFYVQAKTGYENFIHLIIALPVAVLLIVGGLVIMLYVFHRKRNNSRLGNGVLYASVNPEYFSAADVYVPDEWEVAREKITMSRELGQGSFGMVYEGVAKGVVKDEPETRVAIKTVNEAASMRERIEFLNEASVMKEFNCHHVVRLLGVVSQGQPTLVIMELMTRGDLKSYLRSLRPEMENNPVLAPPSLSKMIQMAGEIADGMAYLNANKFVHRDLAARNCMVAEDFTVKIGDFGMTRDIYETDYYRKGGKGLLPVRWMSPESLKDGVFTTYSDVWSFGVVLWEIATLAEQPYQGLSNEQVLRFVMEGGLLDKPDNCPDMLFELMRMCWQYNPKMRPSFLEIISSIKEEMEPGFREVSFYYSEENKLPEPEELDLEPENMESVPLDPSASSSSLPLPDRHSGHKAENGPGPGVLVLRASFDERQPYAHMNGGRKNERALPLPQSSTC
row,IC50 [nM],Compound
1,50,"Nc1ncnc2c1c(-c1cccc(OCC34CCC(CC3)O4)c1)cn2C1CCC(CN2CCC(O)C2)CC1 [Example 126, (S)-1-(((1S,4S)-4-(5-(3-(7-oxabicyclo[2.2.1]heptan-1-ylmethoxy)phenyl)-4-amino-7H-pyrrolo[2,3-d]pyrimidin-7-yl)cyclohexyl)methyl)pyrrolidin-3-ol]"
2,63,"Nc1ncnc2c1c(-c1cccc(OCC34CCC(CC3)O4)c1)cn2C1CC(O)(CN2CCC(O)CC2)C1 (stereo not drawn) [Example 192, 1-(3-{4-Amino-5-[3-(7-oxa-bicyclo[2.2.1]hept-1-ylmethoxy)-phenyl]-pyrrolo[2,3-d]pyrimidin-7-yl}-1-hydroxy-cyclobutylmethyl)-piperidin-4-ol]"
3,8,"CC1(C(N)=O)CCCN1CC1CC(n2cc(-c3cccc(OCC45CCC(CC4)O5)c3)c3c(N)ncnc32)C1 [Example 101, (S)-1-(((1S,3R)-3-(5-(3-(7-oxabicyclo[2.2.1]heptan-1-ylmethoxy)phenyl)-4-amino-7H-pyrrolo[2,3-d]pyrimidin-7-yl)cyclobutyl)methyl)-2-methylpyrrolidine-2-carboxamide]"
4,5,"NC(=O)[C@@H]1CCCN1C[C@H]1C[C@H](n2cc(-c3cccc(OCC45CCC(CC4)O5)c3)c3c(N)ncnc32)C1 [Example 78, (S)-1-(trans-3-{4-amino-5-[3-(7-oxa-bicyclo[2.2.1]hept-1-ylmethoxy)-phenyl]-pyrrolo[2,3-d]pyrimidin-7-yl}cyclobutylmethyl)-pyrrolidine-2-carboxylic acid amide]"
5,15,"CC1(C)CCC(COc2cccc(-c3cn(C4CC(CN5CCC(O)C5)C4)c4ncnc(N)c34)c2)O1 [Example 57, (S)-1-(3-{4-amino-5-[3-(5,5-dimethyl-tetrahydro-furan-2-ylmethoxy)-phenyl]-5 pyrrolo[2,3-d]pyrimidin-7-yl}-cyclobutylmethyl)-pyrrolidin-3-ol]"
6,366,"Nc1ncnc2c1c(-c1cccc(OC[C@@H]3CCCO3)c1)cn2C1CC2(CNC(=O)O2)C1 (stereo partly drawn) [Example 238, 2-(4-Amino-5-{3-[(S)-1-(tetrahydro-furan-2-yl)methoxy]-phenyl}-pyrrolo[2,3-d]pyrimidin-7-yl)-5-oxa-7-aza-spiro[3.4]octan-6-one]"
7,390,"Nc1ncnc2c1c(-c1cccc(OCC34CCC(CC3)O4)c1)cn2C1CC(O)(CN2CCCC2CO)C1 (single isomer, unassigned) [Example 202]"
8,21,CC1(OC(=O)NC[C@H]2C[C@@H](n3cc(-c4cccc(OCC56CCC(CC5)O6)c4)c4c(N)ncnc43)C2)CC1 [Example 107]
9,45,Nc1ncnc2c1c(-c1cccc(OCC34CCC(CC3)O4)c1)cn2[C@H]1CC[C@@H](CN2CCOCC2)CC1 [Example 130]
10,24,"NC[C@H]1C[C@@H](n2cc(-c3cccc(OCC45CCC(CC4)O5)c3)c3c(N)ncnc32)C1 (relative stereo) [Example 160, 7-[cis-3-aminomethyl-cyclobutyl]-5-[3-(7-oxa-bicyclo[2.2.1]hept-1-ylmethoxy)-phenyl]-7H-pyrrolo[2,3-d]pyrimidin-4-ylamine]"
11,435,"NC(=O)[C@@H]1CCCN1[C@H]1C[C@H](n2cc(-c3cccc(OCC45CCC(CC4)O5)c3)c3c(N)ncnc32)C1 [Example 190, (S)-1-(trans-3-{4-Amino-5-[3-(7-oxa-bicyclo[2.2.1]hept-1-ylmethoxy)-phenyl]-pyrrolo[2,3-d]pyrimidin-7-yl}-cyclobutyl)-pyrrolidine-2-carboxylic acid amide]"
12,149,"CN1CCN([C@H]2CC[C@@H](n3cc(-c4cccc(OC[C@H]5CCC(C)(C)O5)c4)c4c(N)ncnc43)CC2)CC1 [Example 121, 5-(3-(((R)-5,5-dimethyltetrahydrofuran-2-yl)methoxy)phenyl)-7-((1S,4S)-4-(4-methylpiperazin-1-yl)cyclohexyl)-7H-pyrrolo[2,3-d]pyrimidin-4-amine]"
13,372,"Nc1ncnc2c1c(-c1cccc(OCC3CCCCO3)c1)cn2[C@H]1C[C@H](CN2CC(O)C2)C1 (relative stereo) [Example 36, 1-(trans-3-{4-amino-5-[3-(tetrahydro-pyran-2-ylmethoxy)-phenyl]pyrrolo[2,3-d]pyrimidin-7-yl}-cyclobutylmethyl)-azetidin-3-ol]"
14,52,"[2H]C([2H])([2H])C(=O)NC[C@H]1C[C@@H](n2cc(-c3cccc(OCC45CCC(CC4)O5)c3)c3c(N)ncnc32)C1 [Example 165, d3-N-(3-{4-amino-5-[3-(7-oxa-bicyclo[2.2.1]hept-1-ylmethoxy)-phenyl]-pyrrolo[2,3-d]pyrimidin-7-yl}-cyclobutylmethyl)-acetamide]"
15,17,"CC1(C)CCC(COc2cccc(-c3cn(C4CC(CN5CCS(=O)(=O)CC5)C4)c4ncnc(N)c34)c2)O1 (stereo not drawn) [Example 14, 5-[3-(5,5-dimethyl-tetrahydro-furan-2-ylmethoxy)phenyl]-7-[3-(1,1-dioxothiomorpholin-4-ylmethyl)-cyclobutyl]-7H-pyrrolo[2,3-d]pyrimidin-4-ylamine]"
16,51 to 58,"CC1CCC(COc2cccc(-c3cn([C@H]4C[C@@H](CN5CCC5)C4)c4ncnc(N)c34)c2)O1 (stereo partly drawn) [Example 5, cis-7-(3-azetidin-1-ylmethyl-cyclobutyl)-5-[3-(5-methyl-tetrahydro-furan-2-ylmethoxy)-phenyl]-7H-pyrrolo[2,3-d]pyrimidin-4-ylamine]"
17,238,"CC(=O)N[C@H]1CC[C@@H](n2cc(-c3cccc(OCC45CCC(CC4)O5)c3)c3c(N)ncnc32)CC1 [Example 133, N-((1S,4S)-4-(5-(3-(7-oxabicyclo[2.2.1]heptan-1-ylmethoxy)phenyl)-4-amino-7H-pyrrolo[2,3-d]pyrimidin-7-yl)cyclohexyl)acetamide]"
18,24 to 54,"CC12CCC(COc3cccc(-c4cn([C@H]5C[C@@H](CN6CCS(=O)(=O)CC6)C5)c5ncnc(N)c45)c3)(CC1)O2 (relative stereo) [Example 155, 7-[cis-3-(1,1-dioxo-1-thiomorpholin-4-ylmethyl)-cyclobutyl]-5-[3-(4-methyl-7-oxa-bicyclo[2.2.1]hept-1-ylmethoxy)-phenyl]-7H-pyrrolo[2,3-d]pyrimidin-4-ylamine]"
19,15,"CC1(C)CCC(COc2cccc(-c3cn(C4CC(CN5CCC(F)C5)C4)c4ncnc(N)c34)c2)O1 (single isomer, unassigned) [Example 46]"
20,15,"CC1(C)CCC(COc2cccc(-c3cn([C@H]4C[C@@H](CN5CCS(=O)(=O)CC5)C4)c4ncnc(N)c34)c2)O1 (single isomer, unassigned) [Example 67]"
21,444,"CNC(=O)[C@H]1CCCN1C[C@H]1C[C@@H](n2cc(-c3cccc(OCC4CCCCO4)c3)c3c(N)ncnc32)C1 (stereo partly drawn) [Example 100, (2R)-1-(((1R,3R)-3-(4-amino-5-(3-((tetrahydro-2H-pyran-2-yl)methoxy)phenyl)-7H-pyrrolo[2,3-d]pyrimidin-7-yl)cyclobutyl)methyl)-N-methylpyrrolidine-2-carboxamide]"
22,276,"NC(=O)[C@@H]1CCCN1C[C@H]1C[C@H](n2cc(-c3cccc(OCC4CCCCO4)c3)c3c(N)ncnc32)C1 (stereo partly drawn) [Example 38, (S)-1-(trans-3-{4-amino-5-[3-(tetrahydro-pyran-2-ylmethoxy)-phenyl]-pyrrolo[2,3-d]pyrimidin-7-yl}-cyclobutylmethyl)-pyrrolidine-2-carboxylic acid amide]"
23,15,"Nc1ncnc2c1c(-c1cccc(OCC34CCC(CC3)O4)c1)cn2C1CC(CN2CC[C@@H](O)C2)C1 (stereo partly drawn) [Example 213, (R)-1-(3-{4-Amino-5-[3-(7-oxa-bicyclo[2.2.1]hept-1-ylmethoxy)-phenyl]-pyrrolo[2,3-d]pyrimidin-7-yl}-cyclobutylmethyl)-pyrrolidin-3-ol]"
24,314,"CN1CCN([C@H]2CC[C@H](n3cc(-c4cccc(OCC5CCC(C)(C)O5)c4)c4c(N)ncnc43)CC2)CC1 (relative stereo) [Example 62, 5-[3-(5,5-dimethyl-tetrahydro-furan-2-ylmethoxy)-phenyl]-7-[trans-4-(4-methyl-piperazin-1-yl)-cyclohexyl]-7H-pyrrolo[2,3-d]pyrimidin-4-ylamine]"
25,22 to 38,"CC1(C)CCC(COc2cccc(-c3cn([C@H]4C[C@@H](CN5CCC(F)(F)CC5)C4)c4ncnc(N)c34)c2)O1 (single isomer, unassigned) [Example 55]"
26,50,"CC1(C)CCC(COc2cccc(-c3cn([C@H]4C[C@@H](CN5CC[C@@H](O)C5)C4)c4ncnc(N)c34)c2)O1 (stereo partly drawn) [Example 58, (R)-1-(cis-3-{4-amino-5-[3-(5,5-dimethyl-tetrahydro-furan-2-ylmethoxy)-phenyl]-pyrrolo[2,3-d]pyrimidin-7-yl}cyclobutylmethyl)-pyrrolidin-3-ol]"
27,6,"Nc1ncnc2c1c(-c1cccc(OCC34CCC(CC3)O4)c1)cn2[C@H]1C[C@@H](CN2C3CCC2CC(O)C3)C1 (stereo partly drawn) [Example 185, 8-(cis-3-{4-Amino-5-[3-(7-oxa-bicyclo[2.2.1]hept-1-ylmethoxy)-phenyl]-pyrrolo[2,3-d]pyrimidin-7-yl}-cyclobutylmethyl)-8-aza-bicyclo[3.2.1]octan-(3-exo)-ol]"
28,10 to 15,"Nc1ncnc2c1c(-c1cccc(OCC34CCC(CC3)O4)c1)cn2C1CC(CN2CC3CC2C[S+]3[O-])C1 (single isomer, unassigned) [Example 228]"
29,53,"Nc1ncnc2c1c(-c1cccc(OCC34CCC(CC3)O4)c1)cn2C1CC(O)(CN2CCC(O)C2)C1 (single isomer, unassigned) [Example 204]"
30,590,"Nc1ncnc2c1c(-c1cccc(OCC34CCC(CC3)O4)c1)cn2[C@H]1CC[C@@H](CO)CC1 [Example 110, ((1S,4S)-4-(5-(3-(7-oxabicyclo[2.2.1]heptan-1-ylmethoxy)phenyl)-4-amino-7H-pyrrolo[2,3-d]pyrimidin-7-yl)-cyclohexyl)methanol]"
